“Also recorded” adds a separate entry of the source.
Experiments:
activated AMPK = experiment: Level of activated AMPK in muscle cells, Western immunoblotting; format: cell-based, mouse; details: for AMPK activity (in words): summary of Table 1
Description: (§1) In Vitro Effect of Selected Compounds on Glut-4, activated AMPK, and activated Akt The levels of Glut-4, activated AMPK and activated Akt were measured in mouse muscle cells C2C12 (from ATTC) and in primary culture of human skeletal muscle cells (Clonetics, Inc.) using Western immunoblotting. C2C12 cells were plated at […] cells per mL/well (12-well plate) in standard cell culture medium (DMEM supplemented with 10% fetal bovine serum (FBS), 25 mM glucose, 20 mM Hepes, 4 mM glutamine and 2 mM sodium pyruvate. 48 hrs after the plating, medium was changed to differentiation medium (DMEM supplemented with 5 mM of glucose and 0.5% of FBS) for next 3-4 days to stimulate the formation of myotubes. Three hrs before the treatment with selected agents, cells were washed with PBS and transferred to PBS supplemented with 5 mM of glucose.
(§2) Human skeletal muscle cells (HSKM) were cultured in SKBM-2 mediums provided by Clonetics. 48 hrs after cell plating, medium was changed to SKBM medium to stimulate differentiation of the cells to myotubes. When differentiated, the myotubes were transferred to PBS supplemented with 5 mM glucose for three hrs before the treatment.
(§3) Analysis of C2C12 cells for the level of activated AMPK, Akt and the level of GLUT-4 was performed in the same experimental system. The cells were treated for 30 minutes at 37° C. […] Subsequently, 20 μg per sample of sample protein was used for Western analysis using NuPage 10% Bis/Tris gels (Invitrogen). After exposure of membranes to primary and secondary antibodies AMPK, AKT or Glut-4 was detected using ECL-Plus (Amersham) following producer's instruction. Chemilumiscent signals were detected by using ChemiDoc system from Biorad. Intensity of detected signals were analyzed and measured using Quantity One software (Biorad). Alternatively, the level of phosphorylated AMPK was detected using ECL kit from Amersham and short exposure to Kodak films.
(§4) Experimental setup: Cell Culture was followed by treatment with selected contemplated compounds, which was followed by cell lysis and western blot analysis for AMPK, Akt, GLUT4, total AMPK, and total Akt. Signals were acquired accordingly.

activated Akt = experiment: Level of activated Akt in muscle cells, Western immunoblotting; format: cell-based, mouse; details: for FOLD AKT ACTIVATION (OVER CONTROL): 30 minutes; for Akt activity (in words): summary of Table 2
Description: as §1, §2, §3, §4

[1] = Serum level of DHZ in mice after oral or i.p. administration (ELISA); format: in vivo, mouse; details: C57/B1 mice, 100 microgram/dose
Description: C57/B1 mice were treated with 100 microgram/dose of dihydrozeatin (DHZ) for 0, 15, 30, 60 and 120 minutes following oral or i.p. administration. Serum level of DHZ in pg/ml was measured using DHZ Elisa following procedures as enclosed in a commercially available test kit (e.g., dihydrozeatin competitive ELISA test system for plant growth hormone detection, Agdia, Elkhard, Ind.). Three animals were used per experimental point.

GLUT-4 = GLUT-4 protein level in C2C12 cells, Western immunoblotting; format: cell-based, mouse; details: summary of Table 3
Description: as §1
Analysis of C2C12 cells for the level of activated AMPK, Akt and the level of GLUT-4 was performed in the same experimental system. The cells were treated for 30 minutes at 37° C. […] After exposure of membranes to primary and secondary antibodies AMPK, AKT or Glut-4 was detected using ECL-Plus (Amersham) following producer's instruction. Chemilumiscent signals were detected by using ChemiDoc system from Biorad. Intensity of detected signals were analyzed and measured using Quantity One software (Biorad). Alternatively, the level of phosphorylated AMPK was detected using ECL kit from Amersham and short exposure to Kodak films. […]

muscle cells = experiment: In vitro myocyte total glucose uptake, fluorescent glucose analog; format: cell-based; details: summary of Table 4
Description: Total glucose uptake was measured using fluorescent glucose analog from Molecular Probes. Briefly, muscle cells were treated with kinetin, N^2-Acetyl-Guanosine and N^2-Acetyl-Guanine for 30 minutes at 37 C first and subsequently, these cells were exposed to 500 μM of fluorescent glucose analog for 5 minutes at room temperature. Next, cells were washed twice with cold Krebs-Hepes buffered solution and fixed in 70% ethanol in water. Fluorescence of fluorescent glucose in the cells was measured using fluorescent plate reader at 480/530 nm (excitation/emission). […] Table 4 refers to multiple independent experiments where multiple identical concentrations for the same reagents are indicated.

Question: Which “AMPK activity (in words)” value (activated AMPK) does the source give for `C/C(=C\CNc1ncnc2[nH]cnc12)CO` [Zeatin] here?
Answer: more potent compounds; also recorded: potent stimulator of AMPK

Question: What about the “FOLD AKT ACTIVATION (OVER CONTROL)” value (activated Akt; 1.0 microM) of the same molecule?
Answer: 0.95 fold

Question: And the “Akt activity (in words)” value (activated Akt)?
Answer: not Akt

Question: For `Nc1nc2c(ncn2[C@@H]2O[C@H](CO)[C@@H](O)[C@H]2O)c(=O)[nH]1` [Guanosine], which “AMPK activity (in words)” value (activated AMPK) is on record?
Answer: potent activators of AMPK as well as Akt

Question: And the “Akt activity (in words)” value (activated Akt)?
Answer: potent activators of AMPK as well as Akt

Question: For `c1ccc(CNc2ncnc3nc[nH]c23)cc1` [Benzyl-Adenine], which “FOLD AMPK ACTIVATION (OVER CONTROL)” value (activated AMPK; 5.0 microM, 30 minutes) is on record?
Answer: 2.70 fold

Question: With `CC(C)=CCNc1ncnc2nc[nH]c12` [Gamma, Gamma-Dimethylally-6-Aminopurine] as the molecule, how does the “FOLD AKT ACTIVATION (OVER CONTROL)” value (activated Akt; 0.8 microM) read?
Answer: 1.90 fold

Question: For `CN(C)C(=N)N=C(N)N` [Metformin, reference compound], which “FOLD AKT ACTIVATION (OVER CONTROL)” value (activated Akt; 20.0 milliM) is on record?
Answer: 2.32 fold

Question: Which results are given for `CC(CO)CCNc1ncnc2nc[nH]c12` (stereo not drawn) [Dihydro-Zeatin, dihydrozeatin]?
Answer: time over which significant serum concentrations can be maintained [1]: at least 120 minutes; oral bioavailability (in words) ([1]; oral): readily bioavailable from the oral route

Question: Which “FOLD AKT ACTIVATION (OVER CONTROL)” value (activated Akt; 0.10 nanoM) does the source give for “Insulin: Insulin, comparator in the Akt activation test” here?
Answer: 1.75 fold

Question: What about the “FOLD AKT ACTIVATION (OVER CONTROL)” value (activated Akt; 25.0 nanoM) of the same molecule?
Answer: 3.40 fold

Question: What about the “FOLD AKT ACTIVATION (OVER CONTROL)” value (activated Akt; 50.0 nanoM) of the same molecule?
Answer: 3.28 fold

Question: Which results are given for `c1coc(CNc2ncnc3[nH]cnc23)c1` [Kinetin, kinetin]?
Answer: AMPK activity (in words) (activated AMPK): more potent compounds; GLUT-4 protein level (in words) (GLUT-4): potently increase GLUT-4 protein level; glucose uptake in muscle cells in vitro (in words) (muscle cells): potently enhance glucose uptake

Question: Which results are given for `CC(=O)Nc1nc2c(ncn2[C@@H]2O[C@H](CO)[C@@H](O)[C@H]2O)c(=O)[nH]1` [N^2-Acetyl-Guanosine]?
Answer: AMPK activity (in words) (activated AMPK): potent activators of AMPK as well as Akt; GLUT-4 protein level (in words) (GLUT-4): potently increase GLUT-4 protein level; Akt activity (in words) (activated Akt): potent activators of AMPK as well as Akt; glucose uptake in muscle cells in vitro (in words) (muscle cells): potently enhance glucose uptake

Question: Which results are given for `CC(=O)Nc1nc2nc[nH]c2c(=O)[nH]1` [N^2-Acetyl-Guanine, N2-acetylguanine]?
Answer: AMPK activity (in words) (activated AMPK): potent activators of AMPK as well as Akt; GLUT-4 protein level (in words) (GLUT-4): potently increase GLUT-4 protein level; Akt activity (in words) (activated Akt): potent activators of AMPK as well as Akt; glucose uptake in muscle cells in vitro (in words) (muscle cells): potently enhance glucose uptake

Question: For `NC(=O)c1ncn([C@@H]2O[C@H](CO)[C@@H](O)[C@H]2O)c1N` [AICAR, 4-Amino-5-imidazolecarboxamide riboside, reference compound], which “FOLD AKT ACTIVATION (OVER CONTROL)” value (activated Akt; 50.0 microM) is on record?
Answer: 2.20 fold

Question: What does the source list for `C/C(=C\CNc1ncnc2nc[nH]c12)CO` [Trans-Zeatin]?
Answer: FOLD AKT ACTIVATION (OVER CONTROL) (activated Akt; 1.0 microM): 0.90 fold; FOLD AKT ACTIVATION (OVER CONTROL) (activated Akt; 10.0 microM): 0.86 fold
